We go through 5 compounds from PMC3660367, “MARCKS Protein Is Phosphorylated and Regulates Calcium Mobilization during Human Acrosomal Exocytosis” (PLoS ONE, 2013).

Experiment [1] concerns phosphorylated MARCKS in human sperm. Put plainly: Phosphorylated MARCKS level in stimulated sperm by Western blot (anti-phospho-MARCKS). Type of experiment: cell-based. The conditions noted are these: non-permeabilized capacitated sperm; 100 µM 2-APB 15 min, then 20 min 10 µM A23187, 200 nM PMA or 15 µM progesterone; normalized against β-tubulin; three experiments. On the procedure: To examine the presence of MARCKS and phosphorylated MARCKS, the fraction of motile sperm capacitated for 2–3 h in BSA supplemented-HTF medium was used. After removing the HTF by washing cells twice with cold PBS, sperm pellets were resuspended in sample buffer (2% SDS, 10% glycerol, and 62.5 mM Tris-HCl pH 6.8) without disulfide reducing agents. Proteins were extracted by heating three times to 95°C for 4 min each. Extracts were centrifuged (12,000×g) for 10 min, and the supernatants were adjusted to 5% β-mercaptoethanol. Protein were resolved on 10% polyacrylamide gels according to [23], and transferred to PVDF membranes (Millipore). Non-specific reactivity was blocked by incubation for 1 h at room temperature (RT) with 5% skim milk dissolved in tris-buffered saline with 0.1% Tween-20 (T-TBS: 50 mM Tris-HCl pH 7.4, 150 mM NaCl, 0.1% Tween-20). Blots were incubated with primary anti-MARCKS antibody from Abcam (0.26 µg/ml), anti-MARCKS N-19 from Santa Cruz (0.13 µg/ml), or anti-phospho-MARCKS (0.06 µg/ml), in blocking solution overnight at 4°C. Biotinylated, goat anti-mouse-IgG (0.076 µg/ml), biotinylated, rabbit anti-goat-IgG (0.4 µg/ml) or biotinylated, goat anti-rabbit-IgG (0.076 µg/ml) were used as secondary antibodies during 60 min incubations at RT. Blots were then incubated with peroxidase-conjugated streptavidin (0.17 µg/ml) during 60 min incubations at RT. Excess first and second antibodies, and peroxidase-conjugated streptavidin were removed by washing five times for 10 min each in T-TBS. For loading control blots were reprobed with anti-β-tubulin. […]
Figure 5 Assessing MARCKS function on acrosomal exocytosis in non-permeabilized sperm. […] The increase in fluorescence is expressed as (F/F0)-1 ((maximum fluorescence intensity/initial fluorescence)-1) versus time in seconds. […] (D) Quantification of three independent experiments. […] Phosphorylated MARCKS was detected by Western blot assay using an anti-phospho-MARCKS antibody. […]
(Immunoblotting shows a protein as a band on a membrane.)

The test system of experiment [2] is acrosomal exocytosis in permeabilized human sperm. Put plainly: Acrosomal exocytosis assay in SLO-permeabilized human sperm (FITC-PSA lectin staining). Type of experiment: cell-based. The following applies: 1 µM MARCKS ED 15 min, then 50 µM PIP2 or 5 µM adenophostin, then 10 µM free Ca2+ or 200 nM PMA. The protocol: Acrosomal exocytosis assays were performed as previously described. Briefly, human semen obtained from normal healthy donors was allowed to liquefy for 30-60 min at 37°C. We used a swim-up protocol to isolate highly motile sperm under capacitating conditions in Human Tubal Fluid media (HTF, as formulated by Irvine Scientific, Santa Ana, CA) supplemented with 0.5% bovine serum albumin (BSA) for 1 h at 37°C in an atmosphere of 5% CO2/95% air. Sperm concentrations were adjusted to 5–10×10^6 cells/ml and incubated for at least 2 h under capacitating conditions. We have shown previously that human sperm incubated under these conditions are responsive to progesterone. […] Acrosomal status was evaluated by staining with FITC-coupled Pisum sativum agglutinin (FITC-PSA) according to [21]. At least 200 cells were scored using a Nikon Optiphot II microscope equipped with epifluorescence optics. […] For each experiment, acrosomal exocytosis indexes were calculated by subtracting the number of reacted spermatozoa in the negative control (range 10%–30%) from all values, and expressing the resulting values as a percentage of the acrosome exocytosis observed in the positive control (range 25%–40%). […] Data were evaluated using one-way ANOVA and post hoc tests (Dunnett's test or confident intervals). […]

In the case of `CNc1ccc2oc(C[C@H]3O[C@@]4(CC[C@H]3C)O[C@H]([C@H](C)C(=O)c3ccc[nH]3)[C@H](C)C[C@H]4C)nc2c1C(=O)O` [A23187], the “increase of phosphorylated MARCKS” value in experiment [1] was determined as 50%.

For the compound `CCCCCCCCCCCCCC(=O)O[C@@H]1[C@@H](C)[C@@]2(O)[C@@H](C=C(CO)C[C@]3(O)C(=O)C(C)=C[C@@H]23)[C@@H]2C(C)(C)[C@]12OC(C)=O` [PMA, phorbol 12-myristate 13-acetate], in experiment [1], the “increase of phosphorylated MARCKS” value is 60%.

On to `Nc1ncnc2c1ncn2[C@@H]1O[C@H](CO)[C@@H](O[C@H]2O[C@H](CO)[C@@H](OP(=O)(O)O)[C@H](OP(=O)(O)O)[C@H]2O)[C@H]1OP(=O)(O)O` [adenophostin, Adenophostin A], for which the “rescue of MARCKS ED inhibition of acrosomal exocytosis” value in experiment [2] was “rescued exocytosis impaired by MARCKS ED”.

With `CC(=O)[C@H]1CC[C@H]2[C@@H]3CCC4=CC(=O)CC[C@]4(C)[C@H]3CC[C@]12C` [progesterone], the “increase of phosphorylated MARCKS” value in experiment [1] is reported as 40%.

In the case of “Phosphatidylinositol 4, 5-bisphosphate [PIP2]”, the “rescue of MARCKS ED inhibition of acrosomal exocytosis” value in experiment [2] is recorded as “able to recover the MARCKS ED inhibition”.
